# Data as given in PubChem BioAssay (NCI).
# Several values for one entry are separate records, joined by “and”; a condition that tells them apart may be missing. Equal entries are not always repeated.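 These data come from cells grown in 96-well plates and exposed to compound for 48 hours at five concentrations. At the GI50, growth is halved. At the TGI there is no net growth.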
# Tests used:
# Test in all cases: growth of human tumour cells (NCI), 48 h
# [1] = tested on: NCI-H226 lung
# [2] = tested on: HCT-116 colon
# [3] = tested on: MOLT-4 leukemia
# [4] = tested on: CAKI-1 renal
# [5] = tested on: HOP-62 NSCLC
# [6] = tested on: EKVX NSCLC
# [7] = tested on: CCRF-CEM leukemia
# [8] = tested on: A549 NSCLC
# [9] = tested on: KM12 colon
# [10] = tested on: NCI-H522 lung
SMILES,TGI [1],TGI [2],TGI [3],TGI [4],TGI [5] [µM],TGI [6],TGI [7],TGI [8],TGI [9],GI50 [10] [µM],TGI [10] [µM],GI50 [1] [µM],GI50 [2] [µM],GI50 [4] [µM],GI50 [5] [µM],GI50 [7] [µM],GI50 [8] [µM],GI50 [9] [µM],GI50 [3] [µM],GI50 [6] [µM]
COc1cccc(C=O)c1C(=O)c1cc(O)ccc1O,> 100 µM,39.2 µM,27.5 µM,> 57.4 µM,> 100,37.9 µM,80.2 µM,> 100 µM,> 100 µM,–,–,–,–,–,–,–,–,–,–,–
COC1=CC(c2ccc[nH]2)=N/C1=C\c1[nH]c(C)c(C(=O)CCC(=O)Oc2ccc3c(c2)CCC2C3CC[C@]3(C)[C@@H](O)CC[C@@H]23)c1C (stereo partly drawn),> 100 µM,3.57 µM,–,> 100 µM,4.95,–,> 100 µM,9.18 µM,> 100 µM,1.99,6.5,4.77,1.03,2.38,1.87,0.304,2.47,3,–,–
CC#C[C@]1(O)CCC2[C@@H]3CCC4=CC(=O)CCC4=C3[C@@H](c3ccc(N(C)C)cc3)C[C@@]21C (stereo partly drawn),–,39.6 µM,–,33 µM,50.3,53 µM,37.5 µM,> 100 µM,65.2 µM,–,–,–,–,–,–,–,–,–,–,–
COc1cccc2c1OC1Sc3ccccc3-c3nn(-c4ccccc4)c-2c31 (stereo not drawn),–,> 100 µM,> 100 µM,–,> 100,> 100 µM,> 100 µM,> 100 µM,> 100 µM,–,> 100,–,–,–,–,–,–,–,–,–
O=C(C=Nc1ccccc1C(=O)[O-])c1cccs1.O=C(C=Nc1ccccc1C(=O)[O-])c1cccs1.[Ni+2],–,> 100 µM,> 100 µM,> 100 µM,> 100,–,> 100 µM,> 100 µM,> 100 µM,–,55.3,–,–,–,–,–,–,–,–,–
O=[N+]([O-])c1cc(-c2nc(=S)[nH][nH]2)ccc1O,–,> 100 µM,–,> 100 µM,> 100,> 100 µM,> 100 µM,> 100 µM,> 100 µM,–,–,–,–,–,–,–,–,–,–,–
Cc1ccccc1C1=C(c2cn(C)c3ccccc23)C(=O)NC1=O,> 25 µM,> 25 µM,> 25 µM,> 25 µM,> 25,–,> 25 µM,> 25 µM,> 25 µM,> 22.6,> 25,11.6,7.77,10.2,> 24.1,9.75,12.2,10.8,10.8,–
N/C=N/S(=O)(=O)c1ccc(NC(=O)COC(=O)c2cccc3c(=O)c4ccccc4[nH]c23)cc1,> 100 µM,> 100 µM,> 100 µM,–,> 100,> 100 µM,> 100 µM,> 100 µM,> 100 µM,–,> 100,–,–,–,–,–,–,–,–,–
COc1cc2c3c(n(CCCN(CCCN(CCCn4c5c(c6ccccc6c4=O)C(=O)c4ccccc4-5)C(=O)OC(C)(C)C)C(=O)OC(C)(C)C)c(=O)c2cc1OC)-c1cc2c(cc1C3=O)OCO2,–,> 100 µM,> 100 µM,> 100 µM,> 100,34 µM,–,> 100 µM,> 100 µM,> 100,> 100,–,> 100,9.85,> 100,–,> 100,> 100,> 100,11.8
CCCCCCCCCCCCCC[n+]1ccccc1,–,–,2.38 µM,5.43 µM,–,–,1.99 µM,2.84 µM,2.25 µM,0.923,3.37,–,–,0.833,–,0.334,1.22,0.855,0.618,–
O=Cc1cccc2ccc3ccccc3c12,74.8 µM,39.4 µM,–,46.5 µM,52.4,–,–,85.3 µM,25.4 µM,–,52,–,–,–,–,–,–,–,–,–
O=C(CN1CCCC1=O)CS(=O)(=O)c1ccccc1,> 100 µM,> 100 µM,> 100 µM,–,> 100,> 100 µM,> 100 µM,> 100 µM,> 100 µM,–,> 100,–,–,–,–,–,–,–,–,–
Nc1nc(N)c(CCCCc2ccccc2)c(C=O)n1,53.7 µM,27.9 µM,–,> 100 µM,> 100,46.4 µM,40.1 µM,> 100 µM,40.8 µM,–,–,–,–,–,–,–,–,–,–,–
CN1CC=C(c2cc(NC(=O)Nc3ccc(Oc4ccnc(NC(=O)C5CC5)c4)c(F)c3)cc(C(F)(F)F)c2)CC1,4.03 µM,1.68 µM,0.943 µM,–,1.12,1.91 µM,0.702 µM,1.8 µM,0.68 µM,0.828,1.84,1.35,0.167,–,0.194,0.126,0.247,0.0332,0.202,0.359
Cc1ccc([Se](=C(C(=O)c2ccccc2)C(=O)c2ccccc2)c2ccc(C)cc2)cc1,56.7 µM,> 100 µM,43.3 µM,57.7 µM,> 100,–,–,> 100 µM,44.1 µM,–,72.9,–,–,–,–,–,–,–,–,–
CC1(C)CC(=O)C=C(/C=C/Sc2c(Cl)c(Cl)nc(Cl)c2Cl)C1,29 µM,13.3 µM,> 100 µM,5.4 µM,27.8,–,–,29.8 µM,26.2 µM,6.17,37,12.7,3.85,2.23,12.9,–,15.4,11.6,4.61,–
COc1cc2c(cc1OC)C(C#N)N(C(=O)c1ccccc1)C=C2OC(=O)c1ccccc1 (stereo not drawn),51.4 µM,–,> 100 µM,–,35.2,71.9 µM,> 100 µM,–,> 100 µM,–,39.2,–,–,–,–,–,–,–,–,–
c1ccc2c(c1)SC(=C1Sc3ccccc3S1)S2,–,–,> 100 µM,> 100 µM,> 100,> 100 µM,> 100 µM,> 100 µM,–,–,–,–,–,–,–,–,–,–,–,–
O=C1/C(=C/c2ccc([N+](=O)[O-])s2)Oc2cc(Cl)ccc21,> 21.8 µM,–,–,–,> 100,–,1.48 µM,> 100 µM,4.56 µM,0.25,0.713,3.83,–,–,7.9,0.325,2.67,0.758,–,–

SMILES,TGI [1],TGI [2],TGI [3],TGI [4],TGI [5] [µM],TGI [6],TGI [7],TGI [8],TGI [9],GI50 [10] [µM],TGI [10] [µM],GI50 [1] [µM],GI50 [2] [µM],GI50 [4] [µM],GI50 [5] [µM],GI50 [7] [µM],GI50 [8] [µM],GI50 [9] [µM],GI50 [3] [µM],GI50 [6] [µM]
OCC1OC2c3ccccc3COC2C1OCc1ccccc1 (stereo not drawn),> 100 µM,> 100 µM,> 100 µM,> 100 µM,–,> 100 µM,–,> 100 µM,> 100 µM,–,> 100,–,–,–,–,–,–,–,–,–
N#CC1C[C@@H]2CC3(CCC2CN1C(=O)c1ccccc1)OCCO3 (stereo partly drawn),> 100 µM,> 100 µM,> 100 µM,> 100 µM,> 100,> 100 µM,> 100 µM,> 100 µM,> 100 µM,–,–,> 100,–,> 100,–,–,–,–,–,–
CN1C(=O)CC2(C)c3cc(O)cc(Br)c3N(C)C12 (stereo not drawn),> 100 µM,> 100 µM,> 100 µM,–,> 100,> 100 µM,> 100 µM,> 100 µM,> 100 µM,–,> 100,–,–,–,–,–,–,–,–,–
CC1(C)NC(=O)N(CCCCCCN2C(=O)NC(C)(C)C2=O)C1=O,> 100 µM,> 100 µM,> 100 µM,> 100 µM,–,> 100 µM,> 100 µM,> 100 µM,> 100 µM,–,> 100,–,–,–,–,–,–,–,–,–
CS(=O)(=O)N1CCC(n2c(=O)c(Oc3ccc(F)cc3F)cc3cnc(NC4CCOCC4)nc32)CC1,> 25 µM,> 25 µM,> 25 µM,> 25 µM,> 25,–,> 25 µM,> 25 µM,> 25 µM,> 25,> 25,> 22.5,> 25,> 25,> 25,> 25,> 25,> 25,> 25,–
COC(=O)c1cc(NC(=O)c2cc(NC(=O)c3cc([N+](=O)[O-])n(C)c3)cn2C)cn1C,> 100 µM,> 100 µM,–,> 100 µM,> 100,> 100 µM,> 100 µM,> 100 µM,> 100 µM,58.9,> 100,39.9,31.8,> 100,6.4,54,64.1,80.8,–,> 100
O=C([O][Hg][c]1ccccc1)c1ccccc1,6.18 µM,2.99 µM,5.7 µM,3.66 µM,4.84,–,2.24 µM,40 µM,24.1 µM,0.275,0.754,2.41,1.45,1.8,2.16,0.324,12.7,11.6,1.38,–
COc1ccc(-c2cc(/C=C3\C(=O)Nc4cc(Cl)ccc43)[nH]n2)cc1,98.6 µM,> 100 µM,> 100 µM,21.6 µM,85.9,–,28.9 µM,> 100 µM,56.1 µM,1.88,6.77,13.1,3.63,1.63,2.75,2.24,5.49,3.46,4.17,–
Cc1ccc([P+](Cc2ccccc2)(c2ccccc2)c2ccccc2)cc1,> 100 µM,> 100 µM,14 µM,> 100 µM,> 100,–,18.9 µM,64.8 µM,12 µM,1.78,6.88,2.57,1.81,5.83,4.25,2.5,3.08,1.69,3.32,–
COc1cc2c(c(O)c1Cl)C(=O)c1c(O)cc(C[C@H](C)O)cc1[C@H]2[C@H]1c2cc(C[C@H](C)O)cc(O)c2C(=O)c2c1cc(OC)c(Cl)c2O,75 µM and 98.1 µM,75 µM and > 100 µM,75 µM and > 100 µM,11.4 µM and > 100 µM,–,75 µM and 90.9 µM,75 µM and > 100 µM,75 µM and > 100 µM,75 µM and > 100 µM,–,–,–,–,–,–,–,–,–,–,–
C/C(CCn1[nH]c(=O)ccc1=O)=N\NC(=O)C(N)=O,> 100 µM,> 100 µM,–,> 100 µM,> 100,> 100 µM,–,> 100 µM,> 100 µM,–,> 100,–,–,–,–,–,–,–,–,–
CCc1ccccc1NC(=O)C(=O)C(C#N)c1ccccc1Cl (stereo not drawn),> 100 µM,> 100 µM,> 100 µM,–,> 100,> 100 µM,> 100 µM,> 100 µM,> 100 µM,–,–,–,–,–,–,–,–,–,–,–
N#CC(C#N)=CNCCN1CCN(C=C(C#N)C#N)CC1,> 100 µM,> 100 µM,> 100 µM,> 100 µM,> 100,> 100 µM,–,> 100 µM,> 100 µM,–,> 100,–,–,–,–,–,–,–,–,–
Oc1c(C(Nc2ccccn2)c2cccc(Oc3ccccc3)c2)ccc2cccnc12 (stereo not drawn),9.32 µM,16.6 µM,> 100 µM,10 µM,21,–,> 100 µM,20 µM,23.4 µM,0.492,18.6,1.36,0.449,0.319,0.448,0.477,0.544,0.45,0.436,–
CC1CCCC(C(=O)CC2CC(=O)NC(=O)C2)C1=O (stereo not drawn),> 100 µM,> 100 µM,> 100 µM,> 100 µM,> 100,> 100 µM,> 100 µM,> 100 µM,> 100 µM,–,–,–,–,–,–,–,–,–,–,–
O=C(Cc1nc2ccc(C(=O)c3ccccc3)cc2[nH]c1=O)C(=O)Nc1nc2ccccc2[nH]1,–,> 100 µM,> 100 µM,> 100 µM,> 100,> 100 µM,> 100 µM,> 100 µM,> 100 µM,–,> 100,–,–,–,–,–,–,–,–,–
O=C(O)CN(c1ccccc1)S(=O)(=O)c1cccc([N+](=O)[O-])c1,> 100 µM,–,> 100 µM,> 100 µM,–,> 100 µM,> 100 µM,> 100 µM,> 100 µM,–,> 100,–,–,–,–,–,–,–,–,–
O=C(CCCn1c2c(sc3ccccc32)c(=O)n2nnc(-c3ccccc3)c12)NCCc1cnc[nH]1,14.1 µM,–,> 100 µM,–,2.87,18.6 µM,–,–,3.19 µM,0.0346,2.79,4.43,–,–,1.31,0.0368,–,0.593,0.815,3.52
